Reference: patent publication US11111242B2, “Pyrrolo[2,3-d]pyrimidinyl, pyrrolo[2,3-b]pyrazinyl and pyrrolo[2,3-d]pyridinyl acrylamides” (Pfizer Inc., priority 2013, dated 2021)
Like-named read-outs stand apart in the source and are kept apart here.

How the values were obtained:
[1] = Stability of JAK3 covalent inhibitors in human whole blood; format: in vitro ADME; settings: 37° C.; for Human blood stability t1/2: 1 μM; for half-life at 1 μM: both sexes, read-out: Human blood stability t1/2
Description: Human blood was collected from one male and one female healthy subjects at the Occupational Health & Wellness Center at Pfizer, Groton, Conn. and pooled for each study. Both rat and human blood was collected freshly into K2-EDTA tubes and kept on ice. An aliquot of the blood was transferred to microtubes and pre-warmed for 10 min at 37° C. using a heat block. […] An aliquot of the incubation mixture was removed at designated time points during the course of the incubation, mixed with an aliquot of acetonitrile containing an internal standard, vortexed and centrifuged. The resulting supernatants were removed and subjected to LC-MS/MS analyses to determine parent compound concentrations. Peak area ratios of the parent compound vs the internal standard were used to determine the % of parent compound remaining vs incubation time.

[2] = test system: IL-15 induced STAT5 phosphorylation in Human Whole Blood (total lymphocytes); assay: HWB IL-15 Induced STAT5 Phosphorylation Assay; format: cell-based; settings: IL-15 stimulated, read-out: HWB-IL15-pSTAT5 IC50
[3] = test system: IL-15 induced P-STAT5 in human PBMC (total lymphocytes); assay: PBMC IL-15 Induced P-STAT5; format: cell-based; settings: IL-15 stimulated, read-out: PBMC IL15-pSTAT5 IC50
Summary of the method: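 Thawed human PBMC in RPMI, preincubated 30 min at 37 °C, then IL-15 stimulated. Cells methanol-permeabilized (90%, on ice 20 min) and stained for phospho-STAT5. Read by flow cytometry, gated on total lymphocytes.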

[4] = target: JAK3 enzyme (Homo sapiens (Human), UniProt P52333); assay: JAK Caliper Enzyme Assay at 4 μM or 1 mM ATP; format: biochemical
Sequence of JAK3 enzyme (P52333 whole entry, species assumed): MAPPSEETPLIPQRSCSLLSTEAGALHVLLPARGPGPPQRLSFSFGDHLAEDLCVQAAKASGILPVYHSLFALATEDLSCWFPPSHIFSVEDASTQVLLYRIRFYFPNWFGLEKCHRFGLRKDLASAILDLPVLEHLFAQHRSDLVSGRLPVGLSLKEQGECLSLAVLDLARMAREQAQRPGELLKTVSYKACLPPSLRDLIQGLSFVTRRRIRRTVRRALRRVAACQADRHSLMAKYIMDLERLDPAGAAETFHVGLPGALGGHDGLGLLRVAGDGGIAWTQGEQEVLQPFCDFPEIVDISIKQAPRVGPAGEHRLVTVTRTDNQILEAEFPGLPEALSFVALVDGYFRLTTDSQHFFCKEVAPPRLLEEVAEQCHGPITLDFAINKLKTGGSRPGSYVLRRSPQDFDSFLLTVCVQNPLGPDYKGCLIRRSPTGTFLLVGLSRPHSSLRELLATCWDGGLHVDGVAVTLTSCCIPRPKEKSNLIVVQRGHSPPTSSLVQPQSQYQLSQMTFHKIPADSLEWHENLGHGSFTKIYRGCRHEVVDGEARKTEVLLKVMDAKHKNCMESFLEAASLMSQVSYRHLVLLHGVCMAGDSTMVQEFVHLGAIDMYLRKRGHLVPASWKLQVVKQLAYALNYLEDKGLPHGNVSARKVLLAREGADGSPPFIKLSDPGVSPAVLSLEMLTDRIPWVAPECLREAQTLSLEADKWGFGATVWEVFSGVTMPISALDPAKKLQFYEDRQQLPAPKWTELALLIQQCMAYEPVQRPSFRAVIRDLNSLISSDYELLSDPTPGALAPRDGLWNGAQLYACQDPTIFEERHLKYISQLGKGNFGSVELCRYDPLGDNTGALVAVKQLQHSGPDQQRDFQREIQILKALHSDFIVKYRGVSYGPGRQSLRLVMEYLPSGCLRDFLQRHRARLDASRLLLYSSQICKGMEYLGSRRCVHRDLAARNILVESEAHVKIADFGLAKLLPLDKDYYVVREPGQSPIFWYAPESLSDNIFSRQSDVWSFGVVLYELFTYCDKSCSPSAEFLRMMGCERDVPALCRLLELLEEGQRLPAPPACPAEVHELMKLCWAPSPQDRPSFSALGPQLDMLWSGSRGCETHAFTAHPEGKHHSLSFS
Description: JAK Caliper Enzyme Assay at 4 μM or 1 mM ATP
Test article was solubilized in dimethyl sulfoxide (DMSO) to a stock concentration of 30 mM. An 11-point half log dilution series was created in DMSO with a top concentration of 600 μM. […] The compound plates were diluted 1 to 60 resulting in a top final assay compound concentration of 10 μM and a 2% DMSO concentration.
Test article and assay controls were added to a 384-well plate. Reaction mixtures contained 20 mM HEPES, pH 7.4, 10 mM magnesium chloride, 0.01% bovine serum albumin (BSA), 0.0005% Tween 20, 4 μM or 1 mM ATP and 1 μM peptide substrate. […] The assays were initiated by the addition 1 nM JAK3 enzyme and were incubated at room temperature 75 minutes for JAK3. Enzyme concentrations and incubation times were optimized for each new enzyme preps and were modified slightly over time to ensure 20%-30% phosphorylation. The assays were stopped with a final concentration of 10 mM EDTA, 0.1% Coating Reagent and 100 mM HEPES, pH=7.4. The assay plates were placed on a Caliper Life Science Lab Chip 3000 (LC3000) instrument, and each well was sampled using appropriate separation conditions to measure the unphosphorylated and phosphorylated peptide.

[5] = read-out: JAK3 (1 mM ATP) IC50, 1 mM ATP

| half-life at 1 μM [1] [h] | IC50 ([2]; Lymphocyte) [µM] | Structure (SMILES) | IC50 [3] [µM] | IC50 ([3]; Homo sapiens, PBMC) [µM] | further results |
| --- | --- | --- | --- | --- | --- |
| – | – | C=CC(=O)N1CCC(Oc2cnc3[nH]cc(-c4cnn(C)c4)c3n2)CC1 [Example 218, 1-(4-{[7-(1-methyl-1H-pyrazol-4-yl)-5H-pyrrolo[2,3-b]pyrazin-2-yl]oxy}piperidin-1-yl)prop-2-en-1-one] | 0.345 | – | Human blood stability t1/2 [1]: >6 h; IC50 [2]: 6.19 µM |
| 4.68 | > 10 | C=CC(=O)N1C[C@@H](Nc2ncnc3[nH]ccc23)[C@@H]2CC[C@H]1C2 (racemic) [Example 116, Rac-1-((1R,4R,5S)-4-(7H-pyrrolo[2,3-d]pyrimidin-4-ylamino)-2-azabicyclo[3.2.1]octan-2-yl)prop-2-en-1-one] | – | > 10 | – |
| – | – | C=CC(=O)N1CC[C@H](Nc2cnc3[nH]cc(C(=O)NC(C)(C)C)c3n2)C[C@@H]1C [Example 341, 2-(((2S,4S)-1-Acryloyl-2-methylpiperidin-4-yl)amino)-N-(tert-butyl)-5H-pyrrolo[2,3-b]pyrazine-7-carboxamide] | – | – | Human blood stability t1/2 [1]: >6 h |
| > 6 | – | C=CC(=O)N1CCC[C@@H](Nc2ncnc3[nH]cc(-c4ccc(C(=O)NC5CC5)c(Cl)c4)c23)C1 [Example 31, 4-(4-{[(3R)-1-acryloylpiperidin-3-yl]amino}-7H-pyrrolo[2,3-d]pyrimidin-5-yl)-2-chloro-N-cyclopropylbenzamide] | – | – | – |
| > 6 | – | C=CC(=O)N1CC[C@@H](Nc2cnc3[nH]cc(C(=O)NC(C)(C)C)c3n2)C[C@H]1C (single isomer, unassigned) [Example 342] | – | – | – |
| > 6 | – | C=CC(=O)N1CC[C@H](Nc2cnc3[nH]cc(C(=O)NC(C)(C)C)c3n2)C[C@@H]1C (racemic) [Example 340] | – | – | – |
| > 6 | 1 | C=CC(=O)N1C[C@@H](O)C[C@@H](Nc2ncnc3[nH]cc(Cl)c23)C1 [Example 162, 1-{(3R,5S)-3-[(5-Chloro-7H-pyrrolo[2,3-d]pyrimidin-4-yl)amino]-5-hydroxypiperidin-1-yl}prop-2-en-1-one] | 0.361 | – | – |
| – | – | C=CC(=O)N1CCN(c2cnc3[nH]cc(C(=O)NC(C)C)c3n2)C[C@H]1CC [Example 311, 2-[(3R)-4-acryloyl-3-ethylpiperazin-1-yl]-N-(propan-2-yl)-5H-pyrrolo[2,3-b]pyrazine-7-carboxamide] | 0.696 | – | IC50 [4, 5]: 0.22 µM |
| – | – | C=CC(=O)N1CC2CCN(c3cnc4[nH]cc(C(=O)NC(C)C)c4n3)C2C1 (stereo not drawn) [Example 178, 2-(5-acryloylhexahydropyrrolo[3,4-b]pyrrol-1(2H)-yl)-N-(propan-2-yl)-5H-pyrrolo[2,3-b]pyrazine-7-carboxamide] | 0.208 | – | Human blood stability t1/2 [1]: 2.38 h; IC50 [2]: 2.56 µM |
| – | – | C=CC(=O)N1CCC(Nc2cnc3[nH]cc(C(=O)N[C@@H](C)C(=O)NCCC#N)c3n2)CC1 [Example 264, 2-[(1-acryloylpiperidin-4-yl)amino]-N-{(2S)-1-[(2-cyanoethyl)aminop]-oxopropan-2-yl}-5H-pyrrolo[2,3-b]pyrazine-7-carboxamide] | 4.48 | – | IC50 ([4]; read-out: JAK3 (4 μM ATP) IC50, 4 μM ATP): 0.0026 µM; IC50 [4, 5]: 0.226 µM |
| – | 0.263 | C=CC(=O)N1CCC(Nc2cnc3[nH]cc(C(=O)N[C@H](C)COC)c3n2)CC1 [Example 268, 2-[(1-acryloylpiperidin-4-yl)amino]-N-[(2R)-1-methoxypropan-2-yl]-5H-pyrrolo[2,3-b]pyrazine-7-carboxamide] | – | 0.0434 | – |
| – | 0.631 | C=CC(=O)N1CC(Nc2cnc3[nH]ccc3n2)C1 [Example 337, 1-(3-((5H-Pyrrolo[2,3-b]pyrazin-2-yl)amino)azetidin-1-yl)prop-2-en-1-one] | – | 0.237 | – |
| – | 0.403 | C=CC(=O)N1CCC(Nc2cnc3[nH]cc(C(=O)N[C@H]4CC[C@@H](F)C4)c3n2)CC1 [Example 244, 2-[(1-acryloylpiperidin-4-yl)amino]-N-[(1S,3R)-3-fluorocyclopentyl]-5H-pyrrolo[2,3-b]pyrazine-7-carboxamide] | – | 0.127 | – |
| – | 0.712 | C=CC(=O)N1C[C@@H](C)C[C@@H](Nc2ncnc3[nH]ccc23)C1 (racemic) [Example 22, rac-cis-1-((3R,5S)-3-((7H-Pyrrolo[2,3-d]pyrimidin-4-yl)amino)-5-methylpiperidin-1-yl)prop-2-en-1-one] | 0.216 | – | – |
| – | 0.463 | C=CC(=O)N1CCC[C@@H](Nc2ncnc3[nH]cc(C)c23)C1 [Example 43, 1-{(3R)-3-[(5-methyl-7H-pyrrolo[2,3-d]pyrimidin-4-yl)amino]piperidin-1-yl}prop-2-en-1-one] | 0.116 | – | – |
| – | 0.359 | C=CC(=O)N1CCC[C@@H](Nc2ncnc3[nH]cc(CCOC)c23)C1 [Example 46, 1-[(3R)-3-{[5-(2-methoxyethyl)-7H-pyrrolo[2,3-d]pyrimidin-4-yl]amino}piperidin-1-yl]prop-2-en-1-one] | – | 0.279 | – |
